Data from PubChem BioAssay (NCI).
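Five compound concentrations were applied to cells in 96-well plates for 48 hours; endpoints were derived by simple linear interpolation of the resulting dose-response curve. The concentration for full growth arrest is given as TGI.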

Key:
Test in all cases: DTP human tumour cell line panel, 48 h
[1] = system: HOP-92 NSCLC
[2] = system: SF-539 CNS
[3] = system: UACC-62 melanoma
[4] = system: HCT-116 colon
[5] = system: SF-295 CNS
[6] = system: SR leukemia
[7] = system: RPMI-8226 leukemia
[8] = system: NCI-H226 lung
[9] = system: DLD-1 colon
[10] = system: EKVX NSCLC
[11] = system: NCI-H23 lung
[12] = system: HL-60(TB) leukemia
[13] = system: SNB-78 CNS
[14] = system: CCRF-CEM leukemia
[15] = system: SK-MEL-2 melanoma
[16] = system: SK-MEL-5 melanoma
[17] = system: COLO 205 colon
[18] = system: IGROV1 ovarian
[19] = system: OVCAR-4 ovarian
[20] = system: OVCAR-5 ovarian

Measured: TGI

CCOC(=O)NC(=O)c1cn(CCNCCO)c(=O)[nH]c1=O
> 100 µM: [1] | [2] | [3] | [4] | [5] | [6] | [7] | [8] | [9] | [10] | [11] | [12] | [13] | [14] | [15] | [16] | [17] | [18] | [19] | [20]
